Laboratory results as given in article PMC7438494 (Communications Biology, 2020).
Where “and” joins values, the source holds several entries; their conditions need not be identical. Identical values can stand only once. Like-named read-outs stand apart in the source and are kept apart here.

Molecular target: human ATP synthase (Homo sapiens, UniProt P00846+P05496)
Assay: biochemical
Type: biochemical
Settings: for cyanide sensitive ATP produced, nmol/min/mg / cyanide sensitive ATP produced, pmol/min/mg: 60 min
[1] = BDQ 5e-6 uM, […], frozen human mito, BDQ in DMSO
[2] = BDQ 5e-6 uM, cyanide sensitive, frozen human mito, BDQ in DMSO
[3] = BDQ 5e-5 uM, […], frozen human mito, BDQ in DMSO
[4] = BDQ 5e-5 uM, cyanide sensitive, frozen human mito, BDQ in DMSO
[5] = BDQ 0.0005 uM, […], frozen human mito, BDQ in DMSO
[6] = BDQ 0.0005 uM, cyanide sensitive, frozen human mito, BDQ in DMSO
[7] = BDQ 0.0005 uM, cyanide sensitive, human
[8] = BDQ 0.005 uM, […], frozen human mito, BDQ in DMSO
[9] = BDQ 0.005 uM, cyanide sensitive, frozen human mito, BDQ in DMSO
[10] = BDQ 0.005 uM, cyanide sensitive, human
[11] = BDQ 0.05 uM, cyanide sensitive, human
[12] = BDQ 0.1 uM, […], frozen human mito, BDQ in DMSO
[13] = BDQ 0.1 uM, cyanide sensitive, frozen human mito, BDQ in DMSO
[14] = BDQ 0.1 uM, cyanide sensitive, human
[15] = BDQ 0.2 uM, […], frozen human mito, BDQ in DMSO
[16] = BDQ 0.2 uM, cyanide sensitive, frozen human mito, BDQ in DMSO
[17] = BDQ 0.2 uM, cyanide sensitive, human
[18] = BDQ 0.5 uM, […], frozen human mito, BDQ in DMSO
[19] = BDQ 0.5 uM, cyanide sensitive, frozen human mito, BDQ in DMSO

SMILES: COc1nc2ccc(Br)cc2cc1[C@@H](c1ccccc1)[C@@](O)(CCN(C)C)c1cccc2ccccc12 [BDQ, Bedaquiline]
- ATP synthesis: 7.2 nmol/min/mg
- inhibition at 0.85 µM: 46%
- % activity, cyanide sensitive [1]: 78.2096%
- % inhibition, cyanide sensitive [1]: 21.7904%
- ATP produced, nmol/min/mg [1]: 6.85 nmol/min/mg
- ATP produced, pmol/min/mg [1]: 6850.84 pmol/min/mg
- cyanide sensitive ATP produced, nmol/min/mg [2]: 5.63 nmol/min/mg
- cyanide sensitive ATP produced, pmol/min/mg [2]: 5632.76 pmol/min/mg
- Cyanide sensitive ATP synthesis (BDQ 5e-6 uM, cyanide sensitive, human): 6.1 nmol/min/mg and 8.3 nmol/min/mg
- % activity, cyanide sensitive [3]: 74.3127%
- % inhibition, cyanide sensitive [3]: 25.6873%
- ATP produced, nmol/min/mg [3]: 6.57 nmol/min/mg
- ATP produced, pmol/min/mg [3]: 6570.19 pmol/min/mg
- cyanide sensitive ATP produced, nmol/min/mg [4]: 5.35 nmol/min/mg
- cyanide sensitive ATP produced, pmol/min/mg [4]: 5352.10 pmol/min/mg
- Cyanide sensitive ATP synthesis (BDQ 5e-5 uM, cyanide sensitive, human): 5.6 nmol/min/mg and 8.1 nmol/min/mg
- % activity [5]: 84.5005%
- % inhibition [5]: 15.4995%
- ATP produced, nmol/min/mg [5]: 7.12 nmol/min/mg
- ATP produced, pmol/min/mg [5]: 7115.12 pmol/min/mg
- activity at 0.0005 µM (BDQ 0.0005 uM, […], frozen human mito, BDQ in DMSO, read-out: % activity): 84.5%
- activity at 0.0005 µM (BDQ 0.0005 uM, […], frozen human mito, BDQ in DMSO, read-out: % activity, cyanide sensitive): 81.9%
- inhibition at 0.0005 µM (BDQ 0.0005 uM, […], frozen human mito, BDQ in DMSO, read-out: % inhibition): 15.5%
- inhibition at 0.0005 µM (BDQ 0.0005 uM, […], frozen human mito, BDQ in DMSO, read-out: % inhibition, cyanide sensitive): 18.1%
- cyanide sensitive ATP produced, nmol/min/mg [6]: 5.90 nmol/min/mg
- cyanide sensitive ATP produced, pmol/min/mg [6]: 5897.03 pmol/min/mg
- Cyanide sensitive ATP synthesis [7]: 7.7 nmol/min/mg and 4.7 nmol/min/mg and 7.8 nmol/min/mg
- cyanide sensitive % activity [7]: 71.1%
- activity at 0.0005 µM (BDQ 0.0005 uM, cyanide sensitive, human, read-out: cyanide sensitive % activity): 81.5%
- inhibition at 0.0005 µM (BDQ 0.0005 uM, cyanide sensitive, human, read-out: cyanide sensitive % inhibition): 18.5%
- % activity [8]: 99.3902%
- % inhibition [8]: 0.6098%
- ATP produced, nmol/min/mg [8]: 8.37 nmol/min/mg
- ATP produced, pmol/min/mg [8]: 8368.87 pmol/min/mg
- activity at 0.005 µM (BDQ 0.005 uM, […], frozen human mito, BDQ in DMSO, read-out: % activity): 99.4%
- activity at 0.005 µM (BDQ 0.005 uM, […], frozen human mito, BDQ in DMSO, read-out: % activity, cyanide sensitive): 99.3%
- inhibition at 0.005 µM (BDQ 0.005 uM, […], frozen human mito, BDQ in DMSO, read-out: % inhibition): 0.6%
- inhibition at 0.005 µM (BDQ 0.005 uM, […], frozen human mito, BDQ in DMSO, read-out: % inhibition, cyanide sensitive): 0.713%
- cyanide sensitive ATP produced, nmol/min/mg [9]: 7.15 nmol/min/mg
- cyanide sensitive ATP produced, pmol/min/mg [9]: 7150.78 pmol/min/mg
- Cyanide sensitive ATP synthesis [10]: 8.3 nmol/min/mg and 4.6 nmol/min/mg and 7.9 nmol/min/mg
- cyanide sensitive % activity [10]: 72.3%
- activity at 0.005 µM (BDQ 0.005 uM, cyanide sensitive, human, read-out: cyanide sensitive % activity): 88.5%
- Cyanide sensitive ATP synthesis [11]: 6.8 nmol/min/mg and 4.7 nmol/min/mg and 3.8 nmol/min/mg
- cyanide sensitive % activity [11]: 71.8% and 64.1% and 43.8%
- cyanide sensitive % inhibition [11]: 28.2% and 35.9% and 56.2%
- % activity [12]: 65.6953%
- % inhibition [12]: 34.3047%
- ATP produced, nmol/min/mg [12]: 5.53 nmol/min/mg
- ATP produced, pmol/min/mg [12]: 5531.68 pmol/min/mg
- activity at 0.1 µM (BDQ 0.1 uM, […], frozen human mito, BDQ in DMSO, read-out: % activity): 65.7%
- activity at 0.1 µM (BDQ 0.1 uM, […], frozen human mito, BDQ in DMSO, read-out: % activity, cyanide sensitive): 59.9%
- inhibition at 0.1 µM (BDQ 0.1 uM, […], frozen human mito, BDQ in DMSO, read-out: % inhibition): 34.3%
- inhibition at 0.1 µM (BDQ 0.1 uM, […], frozen human mito, BDQ in DMSO, read-out: % inhibition, cyanide sensitive): 40.1%
- cyanide sensitive ATP produced, nmol/min/mg [13]: 4.31 nmol/min/mg
- cyanide sensitive ATP produced, pmol/min/mg [13]: 4313.60 pmol/min/mg
- Cyanide sensitive ATP synthesis [14]: 8.1 nmol/min/mg and 6.1 nmol/min/mg and 5.4 nmol/min/mg and 6.3 nmol/min/mg and 7.4 nmol/min/mg
- cyanide sensitive % activity [14]: 86.0% and 84.3% and 62.0% and 71.2% and 67.2%
- % activity [15]: 69.7127%
- % inhibition [15]: 30.2873%
- ATP produced, nmol/min/mg [15]: 5.87 nmol/min/mg
- ATP produced, pmol/min/mg [15]: 5869.95 pmol/min/mg
- activity at 0.2 µM (BDQ 0.2 uM, […], frozen human mito, BDQ in DMSO, read-out: % activity): 69.7%
- activity at 0.2 µM (BDQ 0.2 uM, […], frozen human mito, BDQ in DMSO, read-out: % activity, cyanide sensitive): 64.6%
- inhibition at 0.2 µM (BDQ 0.2 uM, […], frozen human mito, BDQ in DMSO, read-out: % inhibition): 30.3%
- inhibition at 0.2 µM (BDQ 0.2 uM, […], frozen human mito, BDQ in DMSO, read-out: % inhibition, cyanide sensitive): 35.4%
- cyanide sensitive ATP produced, nmol/min/mg [16]: 4.65 nmol/min/mg
- cyanide sensitive ATP produced, pmol/min/mg [16]: 4651.87 pmol/min/mg
- Cyanide sensitive ATP synthesis [17]: 5.6 nmol/min/mg and 4.0 nmol/min/mg and 5.2 nmol/min/mg and 4.4 nmol/min/mg and 5.1 nmol/min/mg
- cyanide sensitive % activity [17]: 55.4% and 59.9% and 49.8% and 46.9%
- cyanide sensitive % inhibition [17]: 44.6% and 40.1% and 50.2% and 53.1%
- activity at 0.2 µM (BDQ 0.2 uM, cyanide sensitive, human, read-out: cyanide sensitive % activity): 59.5%
- inhibition at 0.2 µM (BDQ 0.2 uM, cyanide sensitive, human, read-out: cyanide sensitive % inhibition): 40.5%
- % activity [18]: 36.7347%
- % inhibition [18]: 63.2653%
- ATP produced, nmol/min/mg [18]: 3.09 nmol/min/mg
- ATP produced, pmol/min/mg [18]: 3093.14 pmol/min/mg
- activity at 0.5 µM (BDQ 0.5 uM, […], frozen human mito, BDQ in DMSO, read-out: % activity): 36.7%
- activity at 0.5 µM (BDQ 0.5 uM, […], frozen human mito, BDQ in DMSO, read-out: % activity, cyanide sensitive): 26%
- inhibition at 0.5 µM (BDQ 0.5 uM, […], frozen human mito, BDQ in DMSO, read-out: % inhibition): 63.3%
- inhibition at 0.5 µM (BDQ 0.5 uM, […], frozen human mito, BDQ in DMSO, read-out: % inhibition, cyanide sensitive): 74%
- cyanide sensitive ATP produced, nmol/min/mg [19]: 1.88 nmol/min/mg
- cyanide sensitive ATP produced, pmol/min/mg [19]: 1875.05 pmol/min/mg
